# In patent US9139529B2, “Substituted quinoxalines as sodium channel modulators” (VERTEX PHARMACEUTICALS INCORPORATED, priority 2013, dated 2015):
# Target: human Nav1.8 (Homo sapiens (Human), UniProt Q9Y5Y9)
# Assay: E-VIPR optical membrane potential assay with electrical stimulation
# Type: cell-based
# Settings: HEK cells expressing human Nav1.8
# Source text: Assays for Detecting and Measuring NaV Inhibition Properties of Compounds E-VIPR Optical Membrane Potential Assay Method with Electrical Stimulation
# Sodium channels are voltage-dependent proteins that can be activated by inducing membrane voltage changes by applying electric fields. The electrical stimulation instrument and methods of use are described in Ion Channel Assay Methods PCT/US01/21652, herein incorporated by reference and are referred to as E-VIPR. The instrument comprises a microtiter plate handler, an optical system for exciting the coumarin dye while simultaneously recording the coumarin and oxonol emissions, a waveform generator, a current- or voltage-controlled amplifier, and a device for inserting electrodes in well. Under integrated computer control, this instrument passes user-programmed electrical stimulus protocols to cells within the wells of the microtiter plate.
# 24 hours before the assay on E-VIPR, HEK cells expressing human Nav1.8 were seeded in 384-well poly-lysine coated plates at 15,000-20,000 cells per well. HEK cells were grown in media (exact composition is specific to each cell type and NaV subtype) supplemented with 10% FBS (Fetal Bovine Serum, qualified; GibcoBRL #16140-071) and 1% Pen-Strep (Penicillin-Streptomycin; GibcoBRL #15140-122). Cells were grown in vented cap flasks, in 90% humidity and 5% CO2.
# 1) Pre-spotted compounds (in neat DMSO) into compound plates. Vehicle control (neat DMSO), the positive control (20 mM DMSO stock tetracaine, 125 μM final in assay) and test compounds were added to each well at 160× desired final concentration in neat DMSO. Final compound plate volume was 80 μL (80-fold intermediate dilution from 1 μL DMSO spot; 160-fold final dilution after transfer to cell plate). Final DMSO concentration for all wells in assay was 0.625%.
# 2) Prepared Hexyl Dye Solution.
# 3) Prepared cell plates. On the day of the assay, medium was aspirated and cells were washed three times with 100 μL of Bath1 Solution, maintaining 25 μL residual volume in each well.
# 4) Dispensed 25 μL per well of Hexyl Dye Solution into cell plates. Incubated for 20-35 minutes at room temp or ambient conditions.
# 5) Dispensed 80 μL per well of Bath1 into compound plates. Acid Yellow-17 (1 mM) was added and Potassium Chloride was altered from 4.5 to 20 mM depending on the NaV subtype and assay sensitivity.
# 6) Washed cell plates three times with 100 μL per well of Bath1, leaving 25 μL of residual volume. Then transferred 25 uL per well from Compound Plates to Cell Plates. Incubated for 20-35 minutes at room temp/ambient condition.
# 7) Read Plate on E-VIPR. Used the current-controlled amplifier to deliver stimulation wave pulses for 10 seconds and a scan rate of 200 Hz. A pre-stimulus recording was performed for 0.5 seconds to obtain the un-stimulated intensities baseline. The stimulatory waveform was followed by 0.5 seconds of post-stimulation recording to examine the relaxation to the resting state.
# Data was analyzed and reported as normalized ratios of emission intensities measured in the 460 nm and 580 nm channels. The response as a function of time was reported as the ratios obtained using the following formula: […]
# The data was further reduced by calculating the initial (Ri) and final (Rf) ratios. These were the average ratio values during part or all of the pre-stimulation period, and during sample points during the stimulation period. The response to the stimulus R=Rf/Ri was then calculated and reported as a function of time.
# Control responses were obtained by performing assays in the presence of a compound with the desired properties (positive control), such as tetracaine, and in the absence of pharmacological agents (negative control). Responses to the negative (N) and positive (P) controls were calculated as above. The compound antagonist activity A is defined as:
# [formula] where R is the ratio response of the test compound
# human Nav1.8, sequence (Q9Y5Y9 whole entry): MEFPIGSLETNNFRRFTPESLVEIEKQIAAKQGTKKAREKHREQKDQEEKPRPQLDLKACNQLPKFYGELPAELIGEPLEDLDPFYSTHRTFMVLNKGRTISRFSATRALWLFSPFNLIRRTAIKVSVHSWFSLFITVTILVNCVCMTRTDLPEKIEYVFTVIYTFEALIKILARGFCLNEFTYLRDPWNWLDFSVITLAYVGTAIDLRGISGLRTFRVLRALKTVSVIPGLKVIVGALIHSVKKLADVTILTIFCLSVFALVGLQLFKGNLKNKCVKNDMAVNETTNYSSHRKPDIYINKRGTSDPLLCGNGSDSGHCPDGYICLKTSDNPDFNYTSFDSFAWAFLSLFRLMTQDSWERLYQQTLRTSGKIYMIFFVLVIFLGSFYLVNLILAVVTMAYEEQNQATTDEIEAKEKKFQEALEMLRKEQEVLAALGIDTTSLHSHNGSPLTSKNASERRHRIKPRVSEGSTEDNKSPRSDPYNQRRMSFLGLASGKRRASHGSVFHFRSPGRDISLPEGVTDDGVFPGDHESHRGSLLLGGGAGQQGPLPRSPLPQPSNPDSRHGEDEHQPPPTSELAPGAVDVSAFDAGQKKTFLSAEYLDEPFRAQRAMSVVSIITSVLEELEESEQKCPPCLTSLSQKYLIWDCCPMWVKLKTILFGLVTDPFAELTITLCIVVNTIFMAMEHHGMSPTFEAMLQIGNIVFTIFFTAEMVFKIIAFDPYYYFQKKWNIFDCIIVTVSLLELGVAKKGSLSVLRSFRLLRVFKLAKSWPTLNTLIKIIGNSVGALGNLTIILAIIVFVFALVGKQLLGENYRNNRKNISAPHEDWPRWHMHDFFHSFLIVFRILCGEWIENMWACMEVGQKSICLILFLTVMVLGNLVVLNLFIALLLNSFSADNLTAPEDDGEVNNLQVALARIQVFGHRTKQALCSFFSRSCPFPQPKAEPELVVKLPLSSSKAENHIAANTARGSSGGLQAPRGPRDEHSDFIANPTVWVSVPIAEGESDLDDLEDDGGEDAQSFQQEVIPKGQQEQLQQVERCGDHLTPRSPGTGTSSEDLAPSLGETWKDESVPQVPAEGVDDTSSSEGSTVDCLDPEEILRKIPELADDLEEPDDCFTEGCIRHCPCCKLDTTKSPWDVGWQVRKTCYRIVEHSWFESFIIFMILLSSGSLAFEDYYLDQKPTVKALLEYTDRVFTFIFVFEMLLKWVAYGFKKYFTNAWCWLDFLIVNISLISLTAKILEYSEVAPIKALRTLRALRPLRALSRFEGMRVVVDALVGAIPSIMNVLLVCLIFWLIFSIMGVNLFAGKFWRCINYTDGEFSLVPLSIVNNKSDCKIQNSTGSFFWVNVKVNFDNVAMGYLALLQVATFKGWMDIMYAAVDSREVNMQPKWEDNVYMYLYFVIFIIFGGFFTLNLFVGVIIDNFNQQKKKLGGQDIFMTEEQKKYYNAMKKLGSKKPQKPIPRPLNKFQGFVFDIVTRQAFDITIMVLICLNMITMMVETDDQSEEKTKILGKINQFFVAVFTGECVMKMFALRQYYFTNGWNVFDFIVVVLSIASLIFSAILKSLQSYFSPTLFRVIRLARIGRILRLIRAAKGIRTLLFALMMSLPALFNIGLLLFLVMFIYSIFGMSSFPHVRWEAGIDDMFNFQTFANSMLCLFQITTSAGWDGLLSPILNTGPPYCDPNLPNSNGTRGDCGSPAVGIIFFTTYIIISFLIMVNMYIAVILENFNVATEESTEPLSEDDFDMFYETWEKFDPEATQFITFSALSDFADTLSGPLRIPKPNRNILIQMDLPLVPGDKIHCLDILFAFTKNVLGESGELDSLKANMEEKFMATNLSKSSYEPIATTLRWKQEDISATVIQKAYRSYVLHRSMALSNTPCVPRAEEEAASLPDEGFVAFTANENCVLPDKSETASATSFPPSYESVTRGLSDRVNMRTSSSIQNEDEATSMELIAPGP
row,Structure (SMILES),IC50 [nM]
1,"O=C(O)c1ccc(NC(=O)c2nc3ccccc3nc2Oc2ccc(F)cc2F)cn1 [Compound 29, 5-(3-(2,4-difluorophenoxy)quinoxaline-2-carboxamido)picolinic acid]",185
2,"NS(=O)(=O)c1cccc(NC(=O)c2nc3ccccc3nc2Oc2ccc(F)cc2)c1 [Compound 1, 3-(4-fluorophenoxy)-N-(3-sulfamoylphenyl)quinoxaline-2-carboxamide]",27
3,"COc1cc(F)ccc1Oc1nc2ccccc2nc1C(=O)Nc1cc[nH]n1 [Compound 40, 3-(4-fluoro-2-methoxyphenoxy)-N-(1H-pyrazol-3-yl)quinoxaline-2-carboxamide]",1700
4,"O=C(O)c1ccc(NC(=O)c2nc3ccccc3nc2Oc2ccc(OCC(F)(F)F)cc2)cn1 [Compound 22, 5-(3-(4-(2,2,2-trifluoroethoxy)phenoxy)quinoxaline-2-carboxamido)picolinic acid]",180
5,"COc1cc(F)ccc1Oc1nc2ccccc2nc1C(=O)Nc1nc(C(=O)O)cs1 [Compound 37, 2-(3-(4-Fluoro-2-methoxyphenoxy)quinoxaline-2-carboxamido)thiazole-4-carboxylic acid]",450
6,"COc1cc(F)ccc1Oc1nc2ccccc2nc1C(=O)Nc1ccc(C(=O)O)nc1 [Compound 32, 5-(3-(4-fluoro-2-methoxyphenoxy)quinoxaline-2-carboxamido)picolinic acid]",83
7,"NS(=O)(=O)c1cccc(NC(=O)c2nc3ccccc3nc2Oc2ccccc2OC(F)F)c1 [Compound 10, 3-(2-(difluoromethoxy)phenoxy)-N-(3-sulfamoylphenyl)quinoxaline-2-carboxamide]",36
8,"COc1ccc(Oc2nc3ccccc3nc2C(=O)Nc2ccc(C(=O)O)nc2)cc1F [Compound 27, 5-(3-(3-fluoro-4-methoxyphenoxy)quinoxaline-2-carboxamido)picolinic acid]",185
9,"Cc1cc(Cl)ccc1Oc1nc2ccccc2nc1C(=O)Nc1cccc(S(N)(=O)=O)c1 [Compound 9, 3-(4-chloro-2-methylphenoxy)-N-(3-sulfamoylphenyl)quinoxaline-2-carboxamide]",14
10,"Cc1cc(Cl)ccc1Oc1nc2ccccc2nc1C(=O)Nc1ccc(C(=O)O)nc1 [Compound 25, 5-(3-(4-chloro-2-methylphenoxy)quinoxaline-2-carboxamido)picolinic acid]",56
11,"COc1cc(F)ccc1Oc1nc2ccccc2nc1C(=O)Nc1nc(C(=O)O)co1 [Compound 39, 2-(3-(4-fluoro-2-methoxyphenoxy)quinoxaline-2-carboxamido)oxazole-4-carboxylic acid]",2600
12,"COc1cc(F)ccc1Oc1nc2ccccc2nc1C(=O)Nc1nc[nH]n1 [Compound 38, 3-(4-fluoro-2-methoxyphenoxy)-N-(1H-1,2,4-triazol-3-yl)quinoxaline-2-carboxamide]",1220
13,"COc1cc(Cl)ccc1Oc1nc2ccccc2nc1C(=O)Nc1cccc(S(N)(=O)=O)c1 [Compound 11, 3-(4-chloro-2-methoxyphenoxy)-N-(3-sulfamoylphenyl)quinoxaline-2-carboxamide]",5
14,"Cc1cc(F)ccc1Oc1nc2ccccc2nc1C(=O)Nc1cccc(S(N)(=O)=O)c1 [Compound 14, 3-(4-fluoro-2-methylphenoxy)-N-(3-sulfamoylphenyl)quinoxaline-2-carboxamide]",7
15,"NS(=O)(=O)c1cccc(NC(=O)c2nc3ccccc3nc2Oc2ccc(F)cc2F)c1 [Compound 5, 3-(2,4-difluorophenoxy)-N-(3-sulfamoylphenyl)quinoxaline-2-carboxamide]",13
16,"Cc1cc(F)ccc1Oc1nc2ccccc2nc1C(=O)Nc1ccc(C(=O)O)nc1 [Compound 19, 5-(3-(4-fluoro-2-methylphenoxy)quinoxaline-2-carboxamido)picolinic acid]",86
17,"COc1cc(F)ccc1Oc1nc2ccccc2nc1C(=O)Nc1ccnc(C(=O)O)c1 [Compound 34, 4-(3-(4-fluoro-2-methoxyphenoxy)quinoxaline-2-carboxamido)picolinic acid]",16
18,"NS(=O)(=O)c1cccc(NC(=O)c2nc3ccccc3nc2Oc2ccccc2)c1 [Compound 13, 3-phenoxy-N-(3-sulfamoylphenyl)quinoxaline-2-carboxamide]",92
19,"O=C(O)c1ccc(NC(=O)c2nc3ccccc3nc2Oc2ccc(F)cc2)cn1 [Compound 18, 5-(3-(4-fluorophenoxy)quinoxaline-2-carboxamido)picolinic acid]",250
20,"COc1ccc(Oc2nc3ccccc3nc2C(=O)Nc2ccc(C(=O)O)nc2)c(Cl)c1 [Compound 30, 5-(3-(2-chloro-4-methoxyphenoxy)quinoxaline-2-carboxamido)picolinic acid]",69
21,"NS(=O)(=O)c1cccc(NC(=O)c2nc3ccccc3nc2Oc2ccc(OCC(F)(F)F)cc2)c1 [Compound 15, N-(3-sulfamoylphenyl)-3-(4-(2,2,2-trifluoroethoxy)phenoxy)quinoxaline-2-carboxamide]",66

# Next, values leading:
row,IC50 [nM],Structure (SMILES)
1,30,"COc1cc(F)ccc1Oc1nc2ccccc2nc1C(=O)Nc1cccc(C#N)c1 [Compound 56, N-(3-cyanophenyl)-3-(4-fluoro-2-methoxyphenoxy)quinoxaline-2-carboxamide]"
2,61,"NS(=O)(=O)c1cccc(NC(=O)c2cc3ccccc3nc2Oc2ccc(OCC(F)(F)F)cc2)c1 [Compound 67, N-(3-sulfamoylphenyl)-2-(4-(2,2,2-trifluoroethoxy)phenoxy)quinoline-3-carboxamide]"
3,17,"NS(=O)(=O)c1cccc(NC(=O)c2cc3ccccc3nc2Oc2ccc(F)cc2)c1 [Compound 60, 2-(4-fluorophenoxy)-N-(3-sulfamoylphenyl)quinoline-3-carboxamide]"
4,2400,"COc1cc(F)ccc1Oc1nc2ccccc2nc1C(=O)Nc1ccc(C#N)cn1 [Compound 52, N-(5-cyanopyridin-2-yl)-3-(4-fluoro-2-methoxyphenoxy)quinoxaline-2-carboxamide]"
5,26,"COc1ccc(Oc2nc3ccccc3cc2C(=O)Nc2cccc(S(N)(=O)=O)c2)c(OC)c1 [Compound 72, 2-(2,4-dimethoxyphenoxy)-N-(3-sulfamoylphenyl)quinoline-3-carboxamide]"
6,585,"COc1cc(F)ccc1Oc1nc2ccccc2nc1C(=O)Nc1ccc2nc[nH]c2c1 [Compound 49, N-(1H-benzo[d]imidazol-6-yl)-3-(4-fluoro-2-methoxyphenoxy)quinoxaline-2-carboxamide]"
7,1650,"COc1cc(F)ccc1Oc1nc2ccccc2nc1C(=O)Nc1cccc(-c2nnn[nH]2)c1 [Compound 45, N-(3-(1H-tetrazol-5-yl)phenyl)-3-(4-fluoro-2-methoxyphenoxy)quinoxaline-2-carboxamide]"
8,180,"COc1cc(F)ccc1Oc1nc2ccccc2nc1C(=O)Nc1cccc(C(N)=O)c1 [Compound 59, N-(3-carbamoylphenyl)-3-(4-fluoro-2-methoxyphenoxy)quinoxaline-2-carboxamide]"
9,30,"COc1ccc(Oc2nc3ccccc3cc2C(=O)Nc2cccc(S(N)(=O)=O)c2)cc1F [Compound 62, 2-(3-fluoro-4-methoxyphenoxy)-N-(3-sulfamoylphenyl)quinoline-3-carboxamide]"
10,11,"COc1cc(F)ccc1Oc1nc2ccccc2cc1C(=O)Nc1cccc(S(N)(=O)=O)c1 [Compound 61, 2-(4-fluoro-2-methoxyphenoxy)-N-(3-sulfamoylphenyl)quinoline-3-carboxamide]"
11,13,"NS(=O)(=O)c1cccc(NC(=O)c2cc3ccccc3nc2Oc2ccc(OC(F)(F)F)cc2)c1 [Compound 68, N-(3-sulfamoylphenyl)-2-(4-(trifluoromethoxy)phenoxy)quinoline-3-carboxamide]"
12,8,"Cc1cc(F)ccc1Oc1nc2ccccc2cc1C(=O)Nc1cccc(S(N)(=O)=O)c1 [Compound 63, 2-(4-fluoro-2-methylphenoxy)-N-(3-sulfamoylphenyl)quinoline-3-carboxamide]"
